We go through 5 molecules from patent US7718781B2, “Hydroxypyridonate and hydroxypyrimidinone chelating agents” (The Regents of the University of California, priority 2001, dated 2010).

The nature of data set [1]: Experimental determination of water solubility (UV-Vis of saturated solution). The format is physicochemical. The method, then:
To attain neutral pH, a 0.01 M solution of buffer (HEPES, pKa 7.55) in 0.1 M KCl was made in its acidic form and neutralized to pH 7 with KOH. A dilute solution (of the metal complex) of known concentration was prepared and the UV-Vis spectrum acquired. The extinction coefficient (ε) at the maximum absorbance (at wavelength typically 320-360 nm) was then calculated using Beer-Lambert's law. A saturated solution of the metal complex was then prepared and the UV-Vis spectrum acquired and the maximum absorbance (at wavelength typically 320-360 nm) recorded. In cases where the saturated solution produced extremely high absorbances, the saturated solution was diluted and then the spectrum recorded. Using the known ε, the concentration of the saturated solution was then determined. […] The spectra of the complexes at pH 7 are consistent with the known ML spectra observed from spectrophotometric solution thermodynamics studies of the metal-ligand complexation reactions and indicate the absence of free ligand (note: M=metal, L=ligand).
Typically, preliminary investigation of the minimum solubility of the complexes involves dissolving a known quantity of the complex in a precise volume of solvent. The visible disappearance of particulate matter, over time or instantaneous in some cases, is indicative of complete dissolution of the complex.

Data set [2] is described as follows: Gd(III) formation constants / pGd (spectrophotometric titration). The format is physicochemical. On the procedure: The term, “pGd,” as used herein is −log10[Gd^III]free at pH=7.4, and pre-equilibrium concentrations of [L]=10 μM, [Gd^III]=1 μM.
The Bjerrum method can be used for metal complex stability measurements (pH titrations of ligand and metal+ligand). Competition titrations with DTPA can be performed to determine the stability of very stable complexes where direct pH titration methods are inappropriate. Spectrophotometric techniques can be used to monitor metal-ligand complexation reactions, which give rise to changes in the Vis/UV spectra relative to the parent metal and ligand species. With digitally-recording automated spectrophotometeric titrators, factor analysis of the Vis/UV spectra readily determined the species in solution, their individual spectra and the equilibrium constants which interrelate them.
Data for the spectrophotometric determination of formation constants for the compounds of the invention (e.g., Tren-Me2-5,4-HOPY) with gadolinium are generally collected over a pH range of 2-8.
The formation constants are defined by eq 3:
The spectrophotometric data is refined using a model. […]
The pGd values are defined by eq 4: pGd=−log[Gd]free at pH 7.4 for [Gd]=1 μM, [L]=10 μM (4) A pM value can be calculated for many conditions, but it is generally preferable to calculate it for conditions relevant to biological considerations. […]

The conditions of data set [3]: literature reports; cited from earlier work.
For data set [4] the following is noted: free complex in water, in vitro; cited from earlier work.
For data set [5] the following is noted: cited from earlier work.
Data set [6] has as its system rat hepatocytes. As to conditions: cited from earlier work.
Data set [7] concerns the target human serum albumin (HSA) (Homo sapiens, UniProt P02768). As to conditions: cited from earlier work.
Data set [8] is described as follows: Water proton relaxivity (longitudinal relaxation rate, 20 MHz). The format is physicochemical. Particulars: 37° C. The method, then:
The efficacy of a paramagnetic complex as a possible MRI contrast agent depends on its ability to catalyze the nuclear magnetic relaxation rate of solvent protons (Lauffer, R. B., Chem. Rev., 87, 901 (1987); Tweedle, M. F.; Kumar, K. In Magnetic Resonance Imaging (MRI) Contrast Agents; Clarke, M. I., Sadler, P. J., Eds.; Springer: Berlin, Germany, Vol. 2, p. 1 (1999); Koenig et al., Prog. NMR Spectrosc., 22:487 (1990)). This property, which is measured in terms in relaxivity, r1p, is defined as the enhancement of the water proton longitudinal relaxation rate induced by a 1 mML^−1 solution of the paramagnetic compound at a given temperature and magnetic field strength (Aime et al., Chem. Soc. Rev., 27:19 (1998)).
In an exemplary assay, the longitudinal water proton relaxation rate at 20 MHz are measured (typically with a NMR spectrometer operating at 0.5 T) with a reproducibility of the T1 data to ±0.5%. Equipment for the control of temperature (with an accuracy of ±0.1° C.) during these measurements are employed.
Water proton relaxation measurements were carried out at 20 MHz with a Stelar Spinmaster Spectrometer (Mede, Pv, Italy) on 0.5-2 mM solutions of the Gd(III) complex. Spin-lattice relaxation times T1 were measured by the standard inversion recovery method with typical 90° pulse width of […], 16 experiments of 4 scans. The reproducibility of the data is ±1%. The temperature was controlled by a Stelar VTC-91 air-flow heater equipped with copper-constantan thermocouple (uncertainty ±0.1° C). The 1/T1 nuclear magnetic relaxation dispersion (NMRD) profiles of water protons were measured from 0.00024 to 1.2 T (corresponding to the range 0.01-50 MHz of proton Larmor frequencies) at 15, 25 and 39° C. using 1.5 mM solutions of the complex on the field-cycling Koenig-Brown relaxometer of the University of Torino (Italy). The temperature was controlled by circulating freon from an external bath and measured by a thermometer inserted into the freon close to the sample. The reproducibilities of the measured T1 values were estimated to be ±2%. […]

Data set [9] can be described thus: Ligand protonation constants (potentiometric titration). The format is physicochemical. On the procedure: The protonation constants for chelates of the invention are readily determined by potentiometric titrations. These constants are defined by eq 2:
As previously reported, (Turowski et al., Inorg. Chem., 27:474 (1988)) potentiometric titrations were performed using an automated apparatus consisting of a Accumet pH meter (models 925, 825MP or 15), a pH electrode (Orion Ross semi-micro combination, Cole Parmer semi-micro combination or Corning high performance combination electrodes), an autoburet (Metrohm 665 Dosimat or 702 SM Titrino) fitted with a 5 mL piston exchange unit and a jacketed Ar swept titration cell maintained at 25.0° C. by a Lauda K-2/R or Neslab RTE-111 constant temperature circulating bath. The electronic systems were integrated for automated collection with an IBM PC clone.
In this study, ligand and metal complex solutions were titrated from low to high pH and back again if possible. Titrations for the Zn/HOPY systems were not reversible, presumably due to the formation of mixed ML hydroxide complexes. […] Formation constants calculated from the potentiometric titration data were determined with the aid of a FORTRAN non-linear least-squares refinement program (BETA 90). […] Although this is a low concentration for potentiometric titrations, the buffer regions corresponding to the protonation steps are around neutral pH, and so could still be determined.

The conditions of data set [10]: literature; cited from earlier work.
Data set [11] relates to mice. As to conditions: cited from earlier work.

Structures are written as SMILES.

Sequence of human serum albumin (HSA) (P02768 25-609): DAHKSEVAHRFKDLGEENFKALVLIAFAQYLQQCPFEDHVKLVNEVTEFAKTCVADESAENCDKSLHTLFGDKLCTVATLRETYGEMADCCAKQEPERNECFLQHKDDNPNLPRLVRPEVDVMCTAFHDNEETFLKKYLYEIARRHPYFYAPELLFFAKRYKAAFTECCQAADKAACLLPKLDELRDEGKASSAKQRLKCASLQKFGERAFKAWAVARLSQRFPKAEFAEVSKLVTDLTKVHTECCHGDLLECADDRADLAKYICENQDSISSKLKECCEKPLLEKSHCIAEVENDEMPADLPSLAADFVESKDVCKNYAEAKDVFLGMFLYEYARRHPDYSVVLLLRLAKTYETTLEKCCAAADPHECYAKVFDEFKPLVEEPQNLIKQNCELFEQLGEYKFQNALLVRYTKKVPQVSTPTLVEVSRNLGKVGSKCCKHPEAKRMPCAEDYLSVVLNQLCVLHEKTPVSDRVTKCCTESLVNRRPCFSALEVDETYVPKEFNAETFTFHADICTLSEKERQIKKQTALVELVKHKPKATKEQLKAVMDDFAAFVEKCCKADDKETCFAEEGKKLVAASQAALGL

With `Cn1ccc(C(=O)NCCN(CCNC(=O)c2ccn(C)c(=O)c2O)CCNC(=O)c2ccn(C)c(=O)c2O)c(O)c1=O` [Formula 7, tris[(3-hydroxy-1-methyl-2-oxo-1,2-didehydropyridine-4-carboxamido)ethyl]amine], in data set [1], the “Water Solubility (pH 7, 25° C.)” value is 0.1 mM. The “pH range over which speciation in water is unchanged” value in data set [2] (calculated for 1 μM Gd and 10 μM ligand (FIG. 5)) is reported as 5.5-10. In [3], the “solubility in water of the Gd(III) complex” value was “about 0.1 mM”.

Take `O=C([O-])CN(CCN(CC(=O)[O-])CC(=O)[O-])CCN(CC(=O)[O-])C(COCc1ccccc1)C(=O)[O-].[Gd+3]` (stereo not drawn) [Gd-BOPTA]: in data set [4], the relaxivity in water was 4.4 mM⁻¹ s⁻¹. Moreover, the “relaxivity in rat plasma” value in data set [5] is 6.9 mM⁻¹ s⁻¹. The “relaxivity in rat hepatocytes” value in [6] was 30 mM⁻¹ s⁻¹.

In the case of `O=C([O-])CN(CCN(CC(=O)[O-])C[C@H](COP(=O)([O-])OC1CCC(c2ccccc2)(c2ccccc2)CC1)N(CC(=O)[O-])CC(=O)[O-])CC(=O)[O-].[Gd+3].[H+].[H+].[H+]` [MS-325], in data set [4], the relaxivity in water was 6.6 mM⁻¹ s⁻¹. Moreover, the “relaxivity of the HSA adduct” value in [7] is 42.0 mM⁻¹ s⁻¹.

Take `Cn1ccc(C(=O)NCCN(CCNC(=O)c2ccn(C)c(=O)c2O)CCNC(=O)c2ccn(C)c(=O)c2O)c(O)c1=O` [TREN-1-Me-HOPO, tris[(3-hydroxy-1-methyl-2-oxo-1,2-didehydropyridine-4-carboxamido)ethyl]amine]: in data set [8], the “relaxivity (r1)” value was found to be 10.5 mM⁻¹ s⁻¹ and the “relaxivity relative to [Gd(DTPA)(H2O)]” value is on record as roughly 2.5 times. Besides, the pGd in data set [2] (pH 7.4, [Gd]=1 μM, [L]=10 μM) worked out at 20.3. Moreover, in data set [9], the pKa stood at 6.12. The “number of coordinated water molecules (q)” value in [10] is listed as 2. Further, in data set [11], the toxicity to mice result is listed as “low toxicity”.

Turning to `Cc1nc(C(=O)NCCN(CCNC(=O)c2nc(C)n(C)c(=O)c2O)CCNC(=O)c2nc(C)n(C)c(=O)c2O)c(O)c(=O)n1C` [TREN-HOPY, Tris[(2,3-Dimethyl-5-hydroxy-6-carboxamido-4-pyrimidinone)ethyl]amine], in [9], the pKa was 6.37.
